Data reported in US9079866B2, “Flap modulators” (JANSSEN PHARMACEUTICA NV, priority 2013, dated 2015).
Like-named read-outs stand apart in the source and are kept apart here.

Legend:
[1] = system: leukotriene pathway in human whole blood (LTB4 levels); test: Human whole blood assay (A23187-stimulated LTB4); type: cell-based; details: Homo sapiens, read-out: LTB4 IC50 1:1
Outline: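 Compounds are pre-incubated 15 min at 37° Celsius in RPMI-diluted (1:1) heparinised whole blood before a 30 min A23187 stimulus (7 μg/mL). Plasma LTB4 is read by immunoassay kit, with IC50 calculated from a 4-parameter equation.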

human FLAP = human FLAP (Homo sapiens (Human), UniProt P20292); test: FLAP binding assay (HTRF format); details: HTRF format
Sequence of human FLAP (P20292 whole entry): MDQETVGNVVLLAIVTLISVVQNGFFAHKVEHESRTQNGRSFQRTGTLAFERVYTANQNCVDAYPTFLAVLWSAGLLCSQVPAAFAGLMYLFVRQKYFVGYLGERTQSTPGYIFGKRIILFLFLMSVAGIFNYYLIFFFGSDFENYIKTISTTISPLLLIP
Outline: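 Binding of compounds to FLAP read out as HTRF ratio. Values are the mean of two assay plates, each sample run in duplicate per plate.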

[2] = human whole blood diluted 1:1 in RPMI, A23187-stimulated LTB4
[3] = human FLAP wild type, average of two plates, duplicates
[4] = human whole blood diluted 1:1, A23187-stimulated

Row | SMILES | IC50 [1, 2] [nM] | Ki (human FLAP; [3]) [nM] | IC50 [1, 4] [nM] | Ki (human FLAP; wild type FLAP) [nM]
1 | Nc1ccc(-c2ccc(-c3ccccc3S(=O)(=O)N3CCC(CCO)CC3)cc2F)cn1 [Example 359, 2-(1-((4′-(6-Aminopyridin-3-yl)-3′-fluoro-[1,1′-biphenyl]-2-yl)sulfonyl)piperidin-4-yl)ethanol] | 54 | 4 | – | –
2 | Nc1ccc(-c2ccc(-c3ccccc3S(=O)(=O)N3CCC(O)CC3)cc2F)cn1 [Example 360, 1-((4′-(6-Aminopyridin-3-yl)-3′-fluoro-[1,1′-biphenyl]-2-yl)sulfonyl)piperidin-4-ol] | 67 | 22 | – | –
3 | Nc1ccc(-c2ccc(-c3ccccc3S(=O)(=O)N3CCC(CO)CC3)cc2F)cn1 [Example 361, (1-((4′-(6-Aminopyridin-3-yl)-3′-fluoro-[1,1′-biphenyl]-2-yl)sulfonyl)piperidin-4-yl)methanol] | 26 | 5 | – | –
4 | C[C@@H](CO)NS(=O)(=O)c1ccccc1-c1ccc(-c2cnc3[nH]ccc3c2)c(F)c1 [Example 362, 3′-Fluoro-N-[(1S)-2-hydroxy-1-methylethyl]-4′-(1H-pyrrolo[2,3-b]pyridin-5-yl)biphenyl-2-sulfonamide] | 47 | 1 | – | –
5 | C[C@H](CO)NS(=O)(=O)c1ccccc1-c1ccc(-c2cnc3[nH]ccc3c2)c(F)c1 [Example 363, 3′-Fluoro-N-[(1R)-2-hydroxy-1-methylethyl]-4′-(1H-pyrrolo[2,3-b]pyridin-5-yl)biphenyl-2-sulfonamide] | 184 | 1 | – | –
6 | O=C1NCC[C@@H]1NS(=O)(=O)c1ccccc1-c1ccc(-c2cnc3[nH]ccc3c2)c(F)c1 [Example 364, 3′-Fluoro-N-[(3S)-2-oxopyrrolidin-3-yl]-4′-(1H-pyrrolo[2,3-b]pyridin-5-yl)biphenyl-2-sulfonamide] | 150 | 3 | – | –
7 | O=S(=O)(c1ccccc1-c1ccc(-c2cnc3[nH]ccc3c2)c(F)c1)C1CC1 [Example 365, 5-[2′-(Cyclopropylsulfonyl)-3-fluorobiphenyl-4-yl]-1H-pyrrolo[2,3-b]pyridine] | 60 | 3 | – | –
8 | O=S(=O)(NCCO)c1ccccc1-c1ccc(-c2cnc3[nH]ccc3c2)c(F)c1 [Example 366, 3′-Fluoro-N-(2-hydroxyethyl)-4′-(1H-pyrrolo[2,3-b]pyridin-5-yl)biphenyl-2-sulfonamide] | 40 | 1 | – | –
9 | CC(C)(C)NS(=O)(=O)c1ccccc1-c1ccc(-c2cnc3[nH]ccc3c2)c(F)c1 [Example 367, N-tert-Butyl-3′-fluoro-4′-(1H-pyrrolo[2,3-b]pyridin-5-yl)biphenyl-2-sulfonamide] | 6 | 1 | – | –
10 | CS(=O)(=O)Nc1ccccc1-c1ccc(-c2cnc3[nH]ccc3n2)c(F)c1 [Example 369, N-[3′-Fluoro-4′-(5H-pyrrolo[2,3-b]pyrazin-2-yl)biphenyl-2-yl]methanesulfonamide] | 375 | 17 | – | –
11 | CN(C)S(=O)(=O)c1ccccc1-c1ccc(-c2cnc3[nH]ccc3n2)c(F)c1 [Example 370, 3′-Fluoro-N,N-dimethyl-4′-(5H-pyrrolo[2,3-b]pyrazin-2-yl)biphenyl-2-sulfonamide] | 88 | 2 | – | –
12 | CC(C)(C)NS(=O)(=O)c1ccccc1-c1ccc(-c2cnc3[nH]ccc3n2)c(F)c1 [Example 371, N-tert-Butyl-3′-fluoro-4′-(5H-pyrrolo[2,3-b]pyrazin-2-yl)biphenyl-2-sulfonamide] | 15 | 1 | – | –
13 | O=S(=O)(c1ccccc1-c1ccc(-c2cnc3[nH]ccc3n2)c(F)c1)N1CCCC1 [Example 372, 2-[3-Fluoro-2′-(pyrrolidin-1-ylsulfonyl)biphenyl-4-yl]-5H-pyrrolo[2,3-b]pyrazine] | 31 | 25 | – | –
14 | CCN(CC)S(=O)(=O)c1ccccc1-c1ccc(-c2cnc3[nH]ccc3n2)c(F)c1 [Example 373, N,N-Diethyl-3′-fluoro-4′-(5H-pyrrolo[2,3-b]pyrazin-2-yl)biphenyl-2-sulfonamide] | 7 | 1 | – | –
15 | O=S(=O)(c1ccccc1-c1ccc(-c2cnc3[nH]ccc3n2)c(F)c1)N1CCCCC1 [Example 374, 2-[3-Fluoro-2′-(piperidin-1-ylsulfonyl)biphenyl-4-yl]-5H-pyrrolo[2,3-b]pyrazine] | 11 | 1 | – | –
16 | O=S(=O)(c1ccccc1-c1ccc(-c2cnc3[nH]ccc3n2)c(F)c1)N1CCOCC1 [Example 375, 2-[3-Fluoro-2′-(morpholin-4-ylsulfonyl)biphenyl-4-yl]-5H-pyrrolo[2,3-b]pyrazine] | 31 | 2 | – | –
17 | CS(=O)(=O)c1ccccc1-c1ccc(-c2cnc3[nH]ccc3n2)c(F)c1 [Example 377, 2-[3-Fluoro-2′-(methylsulfonyl)biphenyl-4-yl]-5H-pyrrolo[2,3-b]pyrazine] | 979 | 33 | – | –
18 | CNS(=O)(=O)c1ccccc1-c1ccc(-c2cnc3[nH]ccc3n2)c(F)c1 [Example 379, 3′-Fluoro-N-methyl-4′-(5H-pyrrolo[2,3-b]pyrazin-2-yl)biphenyl-2-sulfonamide] | 33 | 1 | – | –

Row | SMILES | IC50 [1, 2] [nM] | Ki (human FLAP; [3]) [nM] | IC50 [1, 4] [nM] | Ki (human FLAP; wild type FLAP) [nM]
19 | NC1CCN(S(=O)(=O)c2ccccc2-c2ccc(-c3cnc4[nH]ccc4n3)c(F)c2)CC1 [Example 381, 1-{[3′-Fluoro-4′-(5H-pyrrolo[2,3-b]pyrazin-2-yl)biphenyl-2-yl]sulfonyl}piperidin-4-amine] | 141 | 5 | – | –
20 | CS(=O)(=O)c1ccccc1-c1ccc(-c2cnc3c(c2)OCCN3)c(F)c1 [Example 385, 7-[3-Fluoro-2′-(methylsulfonyl)biphenyl-4-yl]-3,4-dihydro-2H-pyrido[3,2-b][1,4]oxazine] | 1080 | 42 | – | –
21 | O=S(=O)(c1ccccc1-c1ccc(-c2cnc3c(c2)OCCN3)c(F)c1)N1CCCCC1 [Example 386, 7-[3-Fluoro-2′-(piperidin-1-ylsulfonyl)biphenyl-4-yl]-3,4-dihydro-2H-pyrido[3,2-b][1,4]oxazine] | 77 | 2 | – | –
22 | NS(=O)(=O)c1ccccc1-c1ccc(-c2cnc3c(c2)OCCN3)c(F)c1 [Example 387, 4′-(3,4-Dihydro-2H-pyrido[3,2-b][1,4]oxazin-7-yl)-3′-fluorobiphenyl-2-sulfonamide] | 253 | 8 | – | –
23 | C[C@@H](CO)NS(=O)(=O)c1ccccc1-c1ccc(-c2cnc3c(c2)OCCN3)c(F)c1 [Example 388, 4′-(3,4-Dihydro-2H-pyrido[3,2-b][1,4]oxazin-7-yl)-3′-fluoro-N-[(1S)-2-hydroxy-1-methylethyl]biphenyl-2-sulfonamide] | 37 | 2 | – | –
24 | CCN(CC)S(=O)(=O)c1ccccc1-c1ccc(-c2cnc3c(c2)OCCN3)c(F)c1 [Example 391, 4′-(3,4-Dihydro-2H-pyrido[3,2-b][1,4]oxazin-7-yl)-N,N-diethyl-3′-fluorobiphenyl-2-sulfonamide] | 56 | 2 | – | –
25 | O=S1(=O)CCN(S(=O)(=O)c2ccccc2-c2ccc(-c3cnc4c(c3)OCCN4)c(F)c2)CC1 [Example 392, 7-{2′-[(1,1-Dioxidothiomorpholin-4-yl)sulfonyl]-3-fluorobiphenyl-4-yl}-3,4-dihydro-2H-pyrido[3,2-b][1,4]oxazine] | 16 | 1 | – | –
26 | CC(C)(C)NS(=O)(=O)c1ccccc1-c1ccc(-c2cnc3c(c2)OCCN3)c(F)c1 [Example 393, N-tert-Butyl-4′-(3,4-dihydro-2H-pyrido[3,2-b][1,4]oxazin-7-yl)-3′-fluorobiphenyl-2-sulfonamide] | 12 | 1 | – | –
27 | CC(C)S(=O)(=O)c1ncccc1-c1ccc(-c2cnc(N)cn2)c(F)c1 [Example 395, 5-(2-Fluoro-4-{2-[(1-methylethyl)sulfonyl]pyridin-3-yl}phenyl)pyrazin-2-amine] | – | – | 32 | 9
28 | CC(C)Sc1ncccc1-c1ccc(-c2cnc(N)cn2)c(F)c1 [Example 396, 5-(2-Fluoro-4-{2-[(1-methylethyl)sulfanyl]pyridin-3-yl}phenyl)pyrazin-2-amine] | – | – | 137 | 8
29 | CC(C)COc1ncccc1-c1ccc(-c2cnc3[nH]ccc3n2)c(F)c1 [Example 398, 2-{2-Fluoro-4-[2-(2-methylpropoxy)pyridin-3-yl]phenyl}-5H-pyrrolo[2,3-b]pyrazine] | – | – | 1130 | 34
30 | CC(C)Oc1ncccc1-c1ccc(-c2cnc3[nH]ccc3n2)c(F)c1 [Example 399, 2-{2-Fluoro-4-[2-(1-methylethoxy)pyridin-3-yl]phenyl}-5H-pyrrolo[2,3-b]pyrazine] | – | – | 358 | 28
31 | CC(C)Oc1ncccc1-c1ccc(-c2cnc(N)cn2)c(F)c1 [Example 401, 5-{2-Fluoro-4-[2-(1-methylethoxy)pyridin-3-yl]phenyl}pyrazin-2-amine] | – | – | 538 | 158
32 | Nc1cnc(-c2ccc(-c3cccnc3OC3CCCC3)cc2F)cn1 [Example 402, 5-{4-[2-(Cyclopentyloxy)pyridin-3-yl]-2-fluorophenyl}pyrazin-2-amine] | – | – | 522 | 92
33 | COc1ncccc1-c1ccc(-c2cnc(N)cn2)c(F)c1 [Example 404, 5-[2-Fluoro-4-(2-methoxypyridin-3-yl)phenyl]pyrazin-2-amine] | – | – | 1490 | 155
34 | Nc1cnc(-c2ccc(-c3cccnc3OC3CCC3)cc2F)cn1 [Example 405, 5-{4-[2-(Cyclobutyloxy)pyridin-3-yl]-2-fluorophenyl}pyrazin-2-amine] | – | – | 2710 | 100
35 | CC(C)(C)OC(=O)N1CCC(COc2ncccc2-c2ccc(-c3cnc(N)cn3)c(F)c2)C1 (stereo not shown) [Example 406, tert-Butyl 3-[({3-[4-(5-aminopyrazin-2-yl)-3-fluorophenyl]pyridin-2-yl}oxy)methyl]pyrrolidine-1-carboxylate] | – | – | 4310 | 135
